How the values were obtained:
[1] = test system: E3: Enzyme derived from Micrococcus luteus (acetylpolyamine amidohydrolase); conditions: pH 7.0, cited from earlier work; for Relative activity, E3: activity against acetylputrescine defined as 100
[2] = target: T1, acetylpolyamine amidohydrolase (the present enzyme, product purified to homogeneity) (Mycoplana ramosa, UniProt Q48935); assay: Enzyme activity on acetylpolyamine substrates, product purified to homogeneity (Method 2 / Method 3); assay type: biochemical, Mycoplana bullata; conditions: for Vmax, Mycoplana bullata enzyme: pH 9.0; for Relative activity, Mycoplana bullata enzyme: phosphate buffer pH 9.0, substrate 0.833 mM, acetylputrescine = 100; for Optimum pH: 37° C., phosphate and borate buffers, per substrate
T1 construct: novel acetylpolyamine amidohydrolase of the present invention accumulated within the grown cells; made in house; host or cells: Mycoplana (natural producer)
T1 sequence (Q48935 1-341): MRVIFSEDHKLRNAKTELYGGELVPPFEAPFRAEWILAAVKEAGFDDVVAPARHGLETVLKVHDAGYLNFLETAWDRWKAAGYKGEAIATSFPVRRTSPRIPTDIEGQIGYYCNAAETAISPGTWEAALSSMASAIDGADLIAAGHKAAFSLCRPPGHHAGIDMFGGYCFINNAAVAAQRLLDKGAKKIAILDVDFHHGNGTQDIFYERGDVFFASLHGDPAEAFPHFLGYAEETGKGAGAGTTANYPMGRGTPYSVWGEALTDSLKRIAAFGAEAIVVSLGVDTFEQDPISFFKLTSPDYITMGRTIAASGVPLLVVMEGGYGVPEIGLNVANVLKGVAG
Description: [Method 2] (Assay when acetylputrescine, acetylcadaverine, N^1 -acetylspermidine and N^8 -acetylspermidine are used as substrate:)
The acetylpolyamine can be hydrolyzed by the acetylpolyamine amidohydrolase, as described in [Method 1], and the corresponding free polyamine thus formed is then oxidized by putrescine oxidase. Putrescine oxidase derived from Micrococcus rubens is known to have an activity upon putrescine, cadaverine and spermidine [Adachi, et al., Agric. Biol. Chem, 30, 1202 (1966)]. […] The actual analytical procedure is as described below.
The above reagents, (b) through (h), were put in a cuvette (d: 1.0 cm) and the mixture was preincubated at 37° C. for 2 minutes. The substrate solution (a) was then added, and the resulting mixture was incubated at 37° C. Absorbance at 500 nm was measured over a period of 3 to 5 minutes, and the change in absorbance per minute (ΔODsample) was determined from the linear portion of the plotted curve. For control, the same procedure as above was carried out, using distilled water as reference.
One unit of acetylpolyamine amidohydrolase is defined as its amount necessary to hydrolyze 1 μmole of acetylputrescine at 37° C. for one minute (or the amount necessary to form 0.5 μmole of quinoneimine pigment formed in the method for measuring the enzyme activity described above).
[Method 3] (Assay when acetylspermine is used as substrate:)
Acetylspermine is hydrolyzed by the action of acetylpolyamine amidohydrolase into free form of spermine. The free form of spermine can be oxidized by a polyamine oxidase derived from Aspergillus terreus to produce hydrogen peroxide. Two molar equivalents of hydrogen peroxide is formed from one molar equivalent of spermine. Thus, the enzyme activity can be measured by quantitative determination of the hydrogen peroxide according to the method described above. However, since the above polyamine oxidase also acts upon acetylspermine, it is impossible to exactly measure the activity of acetylpolyamine amidohydrolase by the standard assay. […] The actual procedure is described below.
Reagents (b) through (d) given in item (1) were put in a test tube and the mixture was preincubated at 37° C. for 2 minutes. The substrate solution (a) was then added, the resulting mixture was incubated at 37° C. for 10 minutes, and the reaction was stopped by addition of the termination (e). A sample solution (100 μl) was taken from the reaction mixture and subjected to HPLC as described above to separate free form of spermine from acetylspermine. Generally, acetylspermine is eluted at a position of 38 minutes after the start of elution and free form of spermine at a position of 41 minutes after the start of elution. A sample solution (200 μl), taken from the eluate containing free form of spermine, was mixed in a cuvette with reagents (a) through (e) given in item (2) above, the mixture was incubated at 37° C. for 10 minutes, and the absorbance at 755 nm was measured. For control, the same procedure as above was carried out using 200 μl of Elunt A in place of the sample solution, as reference.
The concentration of free form of spermine in the reaction mixture can be determined from a calibration curve previously prepared on the basis of aqueous soluitons of free form of spermine with different concentrations. If the concentration of free form of spermine contained in 150 μl of the reaction mixture is taken as P (mM), then the potency (A) for 1 ml of the enzyme solution can be expressed by the following equation: […]
The activities upon acetylputrescine, acetylcadaverine, N^1 -acetylspermidine and N^8 -acetylspermidine were measured by [Method 2] in a phosphate buffer (pH 9.0) at a substrate concentration of 0.833 mM, and the activity upon acetyl-spermine was measured by [Method 3] under the same conditions. […] Km values, determined from the Lineweaver-Burk plot, are also listed in the same table. […]

[3] = target: T2, acetylpolyamine amidohydrolase (the present enzyme, partially purified product) (Mycoplana ramosa, UniProt Q48935); assay: Enzyme activity on acetylpolyamine substrates, partially purified product (substrate specificity, optimum pH/temperature, Km); assay type: biochemical, Mycoplana bullata; conditions: for Optimum pH: pH 6 to 10, bis-Tris propane buffer, per substrate; for Relative activity, the present enzyme: pH 7.0, activity against acetylputrescine defined as 100
T2 construct: novel acetylpolyamine amidohydrolase of the present invention accumulated within the grown cells; made in house; host or cells: Mycoplana (natural producer; cells grown in culture)
T2 sequence (Q48935 1-341): T1 sequence (Q48935 1-341)
Procedure: Activity of the present enzyme (partially purified products) is measured according to the following procedure. That is, 0.1 ml of an enzyme solution is added to a reagent solution consisting of 1.5 ml of 0.1 M phosphate buffer (pH 7.0), 0.05 ml of 50 mM acetylpolyamine, 0.4 U of putrescine oxidase (when acetylputrescine, acetylcadaverine or acetylspermidine is used as substrate) or polyamine oxidase (when acetylspermidine or acetylspermine is used as substrate), 0.5 ml of 2.4 mM 4-aminoantipyrine, 0.5 ml of 42 mM phenol and 20 U of peroxidase. The mixture is incubated at 37° C., and the absorbance of quinoneimine pigment formed at 500 nm is measured.
In terms of the enzyme activity, the amount of enzyme that can hydrolyze 1 μmole of a substrate in one minute is defined as one unit (1 U).
The relative activities of acetylpolyamine amidohydrolases against various type of acetylpolyamine, defining the activities against acetylputrescine as 100 under a condition of pH 7.0, are as shown in Table 1 below.
Enzyme activity was measured at different pH levels ranging from 6 to 10 by using bis-Tris propane buffer solutions. The optimum pH was 9 for acetylputrescine and acetylcadaverine, and 8 for N^1 -acetylspermidine, N^8 -acetylspermidine and acetylspermine, as shown in FIG. 1.
The optimum working temperature for the present enzyme was about 50° C., when the relative activity was determined, using acetylputrescine as substrate, as shown in FIG. 4. The optimum temperatures for the other acetylpolyamine amidohydrolases were 30° to 40° C. This clearly distinguishes the present enzyme from the known enzymes.
Km values of the present enzyme and the other known enzymes for various types of acetylpolyamine at pH 7.0 were determined from the Line weaver-Burk plot [refer to J. Am. Chem. Soc., 56, 658 (1934)].

[4] = test system: E2: Enzyme derived from Arthrobacter sp. (acetylpolyamine amidohydrolase); conditions: pH 7.0, cited from earlier work; for Relative activity, E2: activity against acetylputrescine defined as 100
[5] = test system: E1: Enzyme derived from Streptomyces avellaneus (acetylpolyamine amidohydrolase); conditions: cited from earlier work

| SMILES | Relative activity, E3 [1] [%] | Substrate concentration at which substrate inhibition was observed [2] [mM] | Vmax, Mycoplana bullata enzyme [2] [u/mg] | Relative activity, Mycoplana bullata enzyme [2] [%] | Optimum pH [3] | Relative activity, the present enzyme [3] [%] | Relative activity, E2 [4] [%] | Km [4] [µM] | Optimum pH [2] | Km ([2]; pH 9.0, Lineweaver-Burk plot, read-out: Km, Mycoplana bullata enzyme) [µM] | Km ([3]; pH 7.0, Lineweaver-Burk plot) [µM] | Relative activity, E1 ([5]; pH 7.0, activity against acetylputrescine defined as 100) [%] | Relative activity, St. avellaneus enzyme ([5]; reported reference data in Table 5, acetylputrescine = 100) [%] | Km [1] [µM] |
| --- | --- | --- | --- | --- | --- | --- | --- | --- | --- | --- | --- | --- | --- | --- |
| CC(=O)NCCCCCN [Acetylcadaverine] | 12.5 | ≥ 1 | 18.8 | 72 | 9 | 71 | 45 | 1600 | – | – | – | – | – | – |
| CC(=O)NCCCNCCCCNCCCN [Acetylspermine] | 2.1 | > 1.6 | 7.7 | 37 | 8 | 24 | 3 | – | 10 | 290 | 160 | 0.4 | 0.4 | – |
| CC(=O)NCCCNCCCCN [N^1 -Acetylspermidine] | 3.5 | ≥ 1 | 20.5 | 61 | 8 | 108 | – | – | 9 | – | – | – | – | – |
| CC(=O)NCCCCNCCCN [N^8 -Acetylspermidine] | 85.1 | ≥ 1 | 19.8 | 60 | 8 | 51 | – | – | 9 | – | – | – | – | 380 |
